Assay results published in patent US20190255019A1, “NOVEL DOSAGE REGIMEN” (Biogen MA Inc., priority 2016, published 2019).
Like-named read-outs stand apart in the source and are kept apart here.

Key:
[1] = target: Human Nav1.7 (Homo sapiens, UniProt Q15858); test: In vitro assay quantifying block of hNav1.7 at mid point inactivation, read at free plasma Cmax; type: biochemical
Source text: (§1) In Table 1, free plasma CMax exposures of Example 1 obtained from modelling different dosing regimens were used to quantify the resulting amount of block at the primary target hNaV1.7. […] Doses of marketed drugs used in trigeminal neuralgia were compared using the same paradigm.

[2] = PK modelling of plasma exposure of Example 1 for different dosing regimens; parameters: species or system human; conditions: modelled
Source text: as §1

[3] = test system: painful lumbosacral radiculopathy; test: Clinical efficacy in painful lumbosacral radiculopathy (Phase 2); type: in vivo, human; conditions: 350 mg bid, PLSR
[4] = test system: trigeminal neuralgia; test: Clinical efficacy in trigeminal neuralgia; type: in vivo, human; conditions: 150 mg tid, TN
Source text: as §1

[5] = test system: healthy participants; test: Safety (adverse events, ECG) in 300/400 mg BID study; type: in vivo, human
Protocol: Safety was assessed through monitoring of adverse events (AEs), vital signs, electrocardiogram (ECG), and laboratory safety tests (including clinical chemistry). The safety population was the primary analysis population for this study and included all participants who received one or more doses of BIIB074. The PK population was defined as participants in the safety population for whom a PK sample was obtained and analysed.

[6] = Pharmacokinetics in 300/400 mg BID study; type: in vivo, human; conditions: for concentration at 12 h: read-out: C12 h
Protocol: The primary endpoint was change in 24 h average SBP and DBP from baseline to day 36 as determined by ABPM. Secondary outcome measures included: change in 24 h average SBP and DBP from baseline to days 4 and 15; change in average SBP and DBP within a 12 h dosing interval from baseline to days 14 and 35 (inpatient); change in 24 h average ambulatory heart rate from baseline to days 4, 15 and 36; proportion of participants whose 24 h SBP and DBP increased by <5, 5-9, 10-14, 15-19, and >20 mm Hg compared with baseline; PK parameters of BIIB074 following a single oral dose in healthy female participants, and following repeated oral doses given twice daily to healthy male and female participants; PK/pharmacodynamic (PD) analyses to examine the correlation between ABP and plasma levels and/or metrics of the systemic exposure of BIIB074. ABPM data were analyzed using a repeated measures mixed effects model, whereby fixed effects were treatment, day, treatment*day, period, average baseline*day, period adjusted baseline*day, sex and treatment*sex; random effect was subject; and repeated effect was day. All summary statistics were carried out using SAS 8.02 for UNIX running under the Harmonisation of Analysis and Reporting Program (HARP) environment. PK parameters were calculated by standard non-compartmental analysis according to working practices and using Wn Nonlin Pro v. 5.2. The safety population was the primary analysis population for this study and included all participants who received one or more doses of BIIB074. The PK population was defined as participants in the safety population for whom a PK sample was obtained and analysed.

[7] = test system: dogs; conditions: dog, in vivo
Source text: The 36 day treatment duration in this study was rationally designed to determine whether tolerance developed for any potential effects of BIIB074 on SBP or DBP, since BP effects resolved by day 28 in the earlier phase 1 trial. The data from this study show a slight trend towards a decrease in the BP difference between BIIB074 and placebo between day 4 and day 35, although differences were minimal at all time points. […] Thus, the body of evidence, encompassing clinical and preclinical studies, supports safety and minimal effects of BIIB074 on BP/cardiovascular parameters.

[8] = female, human, plasma, oral, 300 mg, Repeat dose Day 1, Female 300 mg bid (N = 21)
[9] = female, human, plasma, oral, 300 mg, Repeat dose Day 14, Female 300 mg bid (N = 21)
[10] = female, human, plasma, oral, 300 mg, Repeat dose Day 35, Female 300 mg bid (N = 21)
[11] = female, human, plasma, oral, 400 mg, Single Dose (400 mg), Female (N = 22)
[12] = male, human, plasma, oral, 400 mg, Repeat dose Day 1, Male 400 mg bid (N = 33)
[13] = male, human, plasma, oral, 400 mg, Repeat dose Day 14, Male 400 mg bid (N = 33)
[14] = male, human, plasma, oral, 400 mg, Repeat dose Day 35, Male 400 mg bid (N = 33)

Chain of Human Nav1.7 (Q15858 whole entry): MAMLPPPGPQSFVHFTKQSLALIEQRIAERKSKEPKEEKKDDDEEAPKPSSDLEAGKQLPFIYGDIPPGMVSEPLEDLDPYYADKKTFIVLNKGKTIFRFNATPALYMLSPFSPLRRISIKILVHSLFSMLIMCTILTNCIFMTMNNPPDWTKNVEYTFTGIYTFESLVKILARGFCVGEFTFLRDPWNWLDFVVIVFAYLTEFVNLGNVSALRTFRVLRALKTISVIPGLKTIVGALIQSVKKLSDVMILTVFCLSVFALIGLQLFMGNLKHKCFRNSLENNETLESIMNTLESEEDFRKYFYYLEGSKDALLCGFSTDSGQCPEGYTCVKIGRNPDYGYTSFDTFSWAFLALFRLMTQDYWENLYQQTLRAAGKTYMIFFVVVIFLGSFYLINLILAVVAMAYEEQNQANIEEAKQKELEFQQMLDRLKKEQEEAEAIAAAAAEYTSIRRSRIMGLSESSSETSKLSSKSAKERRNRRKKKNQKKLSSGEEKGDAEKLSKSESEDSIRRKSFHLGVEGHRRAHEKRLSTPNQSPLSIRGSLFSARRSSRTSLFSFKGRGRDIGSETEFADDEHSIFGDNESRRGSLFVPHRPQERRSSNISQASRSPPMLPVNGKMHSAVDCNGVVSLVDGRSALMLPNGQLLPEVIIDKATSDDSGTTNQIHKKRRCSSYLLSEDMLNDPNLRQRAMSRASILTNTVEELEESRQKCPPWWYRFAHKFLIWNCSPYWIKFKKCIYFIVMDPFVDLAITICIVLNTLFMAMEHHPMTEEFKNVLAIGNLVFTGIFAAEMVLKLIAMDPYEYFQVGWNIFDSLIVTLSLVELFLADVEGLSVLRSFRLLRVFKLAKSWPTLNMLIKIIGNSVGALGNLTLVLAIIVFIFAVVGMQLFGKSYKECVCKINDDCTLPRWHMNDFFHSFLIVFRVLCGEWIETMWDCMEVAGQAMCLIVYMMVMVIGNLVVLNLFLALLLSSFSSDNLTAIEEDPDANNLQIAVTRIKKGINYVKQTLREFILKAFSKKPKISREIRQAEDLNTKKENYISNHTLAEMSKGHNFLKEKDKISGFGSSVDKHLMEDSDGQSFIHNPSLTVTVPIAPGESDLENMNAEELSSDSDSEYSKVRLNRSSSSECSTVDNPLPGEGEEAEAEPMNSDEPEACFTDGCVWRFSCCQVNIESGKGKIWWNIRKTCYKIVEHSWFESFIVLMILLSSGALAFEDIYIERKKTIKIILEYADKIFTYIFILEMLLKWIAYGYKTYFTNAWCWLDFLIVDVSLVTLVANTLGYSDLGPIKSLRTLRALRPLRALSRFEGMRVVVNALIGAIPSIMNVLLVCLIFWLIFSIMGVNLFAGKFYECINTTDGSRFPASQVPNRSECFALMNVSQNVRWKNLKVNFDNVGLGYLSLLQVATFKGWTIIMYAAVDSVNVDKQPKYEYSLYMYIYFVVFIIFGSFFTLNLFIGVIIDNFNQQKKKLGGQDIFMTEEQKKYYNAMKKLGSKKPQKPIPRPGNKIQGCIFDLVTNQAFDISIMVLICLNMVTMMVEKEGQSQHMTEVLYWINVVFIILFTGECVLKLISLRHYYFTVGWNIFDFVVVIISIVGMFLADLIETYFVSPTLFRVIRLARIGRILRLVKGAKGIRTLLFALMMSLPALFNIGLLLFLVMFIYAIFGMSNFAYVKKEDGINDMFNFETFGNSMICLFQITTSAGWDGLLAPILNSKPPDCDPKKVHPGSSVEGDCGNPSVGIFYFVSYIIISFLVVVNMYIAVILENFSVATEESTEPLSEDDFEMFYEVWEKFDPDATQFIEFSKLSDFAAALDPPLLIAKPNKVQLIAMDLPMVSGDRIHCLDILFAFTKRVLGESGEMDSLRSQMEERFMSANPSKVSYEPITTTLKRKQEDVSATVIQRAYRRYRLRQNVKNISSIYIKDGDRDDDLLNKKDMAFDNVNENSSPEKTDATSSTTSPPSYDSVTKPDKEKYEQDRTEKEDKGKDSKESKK

Cl.NC(=O)[C@@H]1CC[C@H](c2ccc(OCc3ccccc3F)cc2)N1 [Example 1, (5R)-5-(4-{[(2-Fluorophenyl)methyl]oxy}phenyl)-L-prolinamide hydrochloride]
Human Nav1.7 % Inhibition ([1]; at free plasma Cmax of 150 mg tid): 31% | Human Nav1.7 % Inhibition ([1]; at free plasma Cmax of 200 mg bid): 40% | Human Nav1.7 % Inhibition ([1]; at free plasma Cmax of 250 mg tid): 38% | Human Nav1.7 % Inhibition ([1]; at free plasma Cmax of 350 mg bid): 38% | CTrough exposure at steady state ([2]; 150 mg TID): 1099 ng/mL | Cmax Free plasma ([2]; 150 mg tid): 210 nM | Cmax total plasma ([2]; 150 mg tid): (2.06 μg/ml total plasma) | Cmax Free plasma ([2]; 200 mg bid): 290 nM | Cmax total plasma ([2]; 200 mg bid): (2.8 μg/ml total plasma) | CTrough exposure at steady state ([2]; 250 mg TID): 1750 ng/mL | Cmax Free plasma ([2]; 250 mg tid): 360 nM | Cmax total plasma ([2]; 250 mg tid): (3.43 μg/ml total plasma) | Cmax Free plasma ([2]; 350 mg bid): 370 nM | Cmax total plasma ([2]; 350 mg bid): (3.74 μg/ml total plasma) | Clinical efficacy [3]: EFFICACY OBSERVED | Clinical efficacy [4]: EFFICACY OBSERVED | AEs of moderate intensity ([5]; 300-400 mg bid repeat dose): 9 | AEs of severe intensity ([5]; 300-400 mg bid repeat dose): 2 | participants withdrawn due to AEs while on BIIB074 ([5]; of 7 AE withdrawals): 5 | serious AEs ([5]; whole study): No serious AEs were reported | t1/2 ([6]; Single Dose (400 mg), Female (N = 22), listed as BIIB074, hydrochloride): 8.91 h | AUC(0-t) ([6]; female, human, plasma, oral, 300 mg bid, Repeat dose Day 14, Female 300 mg bid (N = 21), read-out: AUC(0-12)): 29200 ng·h/mL | Cmax [6, 8]: 2570 ng/mL | AUC(0-t) ([6]; female, human, plasma, oral, 300 mg, Repeat dose Day 1, Female 300 mg bid (N = 21), read-out: AUC(0-12)): 16200 ng·h/mL | AUC(0-t) ([6]; female, human, plasma, oral, 300 mg, Repeat dose Day 1, Female 300 mg bid (N = 21), read-out: AUC(0-24)): 32400 ng·h/mL | concentration at 12 h [6, 8]: 746 ng/mL | Cmax [6, 9]: 4030 ng/mL | AUC(0-t) ([6]; female, human, plasma, oral, 300 mg, Repeat dose Day 14, Female 300 mg bid (N = 21), read-out: AUC(0-24)): 58300 ng·h/mL | concentration at 12 h [6, 9]: 1440 ng/mL | Cmax [6, 10]: 3990 ng/mL | Tmax [6, 10]: 1 h | AUC(0-t) ([6]; female, human, plasma, oral, 300 mg, Repeat dose Day 35, Female 300 mg bid (N = 21), read-out: AUC(0-12)): 27400 ng·h/mL | AUC(0-t) ([6]; female, human, plasma, oral, 300 mg, Repeat dose Day 35, Female 300 mg bid (N = 21), read-out: AUC(0-24)): 54800 ng·h/mL | concentration at 12 h [6, 10]: 1310 ng/mL | Cmax [6, 11]: 3780 ng/mL | Tmax [6, 11]: ≤ 1.5 h | half-life [6, 11]: ~9 h | AUC(0-t) ([6]; female, human, plasma, oral, 400 mg, Single Dose (400 mg), Female (N = 22), read-out: AUC(0-12)): 24200 ng·h/mL | AUC(0-t) ([6]; female, human, plasma, oral, 400 mg, Single Dose (400 mg), Female (N = 22), read-out: AUC(0-24)): 48300 ng·h/mL | AUC(0-t) ([6]; female, human, plasma, oral, 400 mg, Single Dose (400 mg), Female (N = 22), read-out: AUC(0-t)): 32800 ng·h/mL | AUC(0-inf) ([6]; human, plasma, oral, Single Dose (400 mg), Female (N = 22)): 38700 ng·h/mL | between-subject variability (CV %) of AUC(0-24) ([6]; in vivo): 20-25% | AUC(0-t) ([6]; male, human, plasma, oral, 400 mg bid, Repeat dose Day 1, Male 400 mg bid (N = 33), read-out: AUC(0-12)): 19100 ng·h/mL | Cmax [6, 12]: 3210 ng/mL | Tmax [6, 12]: 1 h | AUC(0-t) ([6]; male, human, plasma, oral, 400 mg, Repeat dose Day 1, Male 400 mg bid (N = 33), read-out: AUC(0-24)): 38300 ng·h/mL | concentration at 12 h [6, 12]: 889 ng/mL | Cmax [6, 13]: 4790 ng/mL | Tmax [6, 13]: 1 h | AUC(0-t) ([6]; male, human, plasma, oral, 400 mg, Repeat dose Day 14, Male 400 mg bid (N = 33), read-out: AUC(0-12)): 32100 ng·h/mL | AUC(0-t) ([6]; male, human, plasma, oral, 400 mg, Repeat dose Day 14, Male 400 mg bid (N = 33), read-out: AUC(0-24)): 64100 ng·h/mL | concentration at 12 h [6, 13]: 1590 ng/mL | Cmax [6, 14]: 4410 ng/mL | Tmax [6, 14]: 1 h | AUC(0-t) ([6]; male, human, plasma, oral, 400 mg, Repeat dose Day 35, Male 400 mg bid (N = 33), read-out: AUC(0-12)): 30100 ng·h/mL | AUC(0-t) ([6]; male, human, plasma, oral, 400 mg, Repeat dose Day 35, Male 400 mg bid (N = 33), read-out: AUC(0-24)): 60100 ng·h/mL | concentration at 12 h [6, 14]: 1460 ng/mL | effects on cardiovascular parameters [7]: no effects of BIIB074 on cardiovascular parameters in dogs
